This passage reports Activity results from ChEMBL document CHEMBL5661983, “The selective anaplastic lymphoma receptor tyrosine kinase inhibitor ASP3026 induces tumor regression and prolongs survival in non-small cell lung cancer model mice” (Mol Cancer Ther, 2014).

Active and inactive are the calls of the source. The calls are words filed in the database; no cut-off is given here.

Data set [1] relates to NCI-H2228. Briefly: Antitumor activity against human NCI-H2228 cells xenografted in NOD.CB17-Prkdcscid/J mouse assessed as increase in tumor regression at 12 mg/kg, iv administered daily for 5 days. It counts as functional, organism-based. Particulars: time 5.0 day. On the technique in general: A xenograft is tissue or cells of one species grown in another, often human tumour cells in immunodeficient mice.

Data set [2] in a line: Toxicity in human NCI-H2228 cell xenografted NOD.CB17-Prkdcscid/J mouse assessed as body weight loss at 50 mg/kg, iv administered once daily for 5 days. The class given is organism-based. Particulars: in vivo, 120 h, time 5 day.
The test system of data set [3] is NCI-H2228. Briefly: Antitumor activity against human NCI-H2228 cells xenografted in NOD.CB17-Prkdcscid/J mouse assessed as reduction in tumor volume at 50 mg/kg, iv administered daily for 5 days. It counts as functional, organism-based. Particulars: time 5.0 day.

Consider `CC(=O)O[C@H]1C(=O)[C@@]2(C)[C@H]([C@H](OC(=O)c3ccccc3)[C@]3(O)C[C@H](OC(=O)[C@H](O)[C@@H](NC(=O)c4ccccc4)c4ccccc4)C(C)=C1C3(C)C)[C@]1(OC(C)=O)CO[C@@H]1C[C@@H]2O`, for which, in the data set with NCI-H2228 [1], the result was Active. With `Nc1nc2[nH]cc(CCc3ccc(C(=O)N[C@@H](CCC(=O)O)C(=O)O)cc3)c2c(=O)[nH]1` [PEMETREXED], the Activity entry in data set [2] was “Toxic”. In addition, in the data set with NCI-H2228 [3], the result was Active.
